The values that follow come from ChEMBL document CHEMBL1136937, “Discovery of a potent class I selective ketone histone deacetylase inhibitor with antitumor activity in vivo and optimized pharmacokinetic properties” (J Med Chem, 2009).

A word on the CC50: it is the concentration giving 50% cytotoxicity. Low readings indicate greater toxicity to the cells, high ones lower toxicity to the cells. What is called microsomal CLint is the rate of metabolic loss divided by the concentration. One may read the IC50 as the concentration needed to halve the response being measured. A low value points to greater potency.

Bounds are passed on as bounds.

A short description of series [1]: Clearance in Sprague-Dawley rat plasma at 3 mg/kg, iv and 3 mg/kg, po. Type of series: ADME, organism-based.
The next series deals with HeLa. The series is described as follows: Antiproliferative activity against human P53-deficient HeLa cells after 72 hrs by celltiter-blue cell viability assay. Type of series: functional.
Series [2] in a line: Metabolic stability in dog liver microsomes assessed as intrinsic clearance at 1 uM after 90 mins. Format: ADME, Canis lupus familiaris, Microsome. Particulars: for microsomal CLint at 1 µM: liver microsomes. On the technique in general: Liver microsomes are vesicles of endoplasmic reticulum, rich in cytochrome P450 enzymes.
Series [3] is described as follows: Metabolic stability in rat liver microsomes assessed as intrinsic clearance at 1 uM after 90 mins. Format: ADME, Microsome.
A further series addresses Histone deacetylase 1 (Homo sapiens, UniProt Q13547).
Series [4] in a line: (§1) Metabolic stability in human liver microsomes assessed as intrinsic clearance at 1 uM after 90 mins. Format: ADME, Microsome. Particulars: liver microsomes.
The test system of another series is Liver microsomes. Described as §1. Type of series: ADME, Microsome. As to conditions: microsomes, 1.5 h, 1 µM.
A further series deals with HCT-116. The series is described as follows: Antiproliferative activity against human P53 expressing HCT116 cells after 72 hrs by celltiter-blue cell viability assay. Format: functional.
The subject of the next series is A2780. The series can be described thus: Antiproliferative activity against human A2780 cells after 72 hrs by celltiter-blue cell viability assay. As to conditions: A2780, 72 h. Format: functional. (Resazurin is reduced to fluorescent resorufin, in cell work by metabolically active cells.)
For a further series, the system named is G-401. The series is described as follows: Antiproliferative activity against human G401 cells after 72 hrs by celltiter-blue cell viability assay. Type of series: functional.
Another series has as its system A549. The series can be described thus: Antiproliferative activity against human P53 expressing A549 cells after 72 hrs by celltiter-blue cell viability assay. Type of series: functional. As to conditions: A549, 72 h.
The test system of the next series is MCF7. The series is described as follows: Antiproliferative activity against human MCF7 cells after 72 hrs by celltiter-blue cell viability assay. Format: functional.

Sequence of Histone deacetylase 1 (Q13547 whole entry): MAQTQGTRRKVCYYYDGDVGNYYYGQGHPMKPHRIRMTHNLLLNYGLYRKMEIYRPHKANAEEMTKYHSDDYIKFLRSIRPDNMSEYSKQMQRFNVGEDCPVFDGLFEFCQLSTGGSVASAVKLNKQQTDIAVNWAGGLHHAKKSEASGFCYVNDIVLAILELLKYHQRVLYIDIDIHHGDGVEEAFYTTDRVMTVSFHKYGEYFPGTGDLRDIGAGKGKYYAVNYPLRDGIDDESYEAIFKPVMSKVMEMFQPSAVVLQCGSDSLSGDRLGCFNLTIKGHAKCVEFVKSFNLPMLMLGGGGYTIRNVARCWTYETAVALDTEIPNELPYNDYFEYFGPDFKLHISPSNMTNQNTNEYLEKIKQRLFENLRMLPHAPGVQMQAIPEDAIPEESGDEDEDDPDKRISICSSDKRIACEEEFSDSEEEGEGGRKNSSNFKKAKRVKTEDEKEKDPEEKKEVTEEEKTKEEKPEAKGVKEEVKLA
Description for Histone deacetylase 1: Inhibition of human C-terminal FLAG-tagged HDAC1 in HEK293 cells

As to `CCC(=O)CCCCC[C@H](NC(=O)CCN(C)C)c1ncc(-c2cc(OC)c3ccccc3n2)[nH]1`, the clearance in series [1] is 59 mL/min/kg. The compound further showed a CC50 in the series with HeLa of 500 nM. Also, the microsomal CLint at 1 µM in series [2] came to 6 µL/min/mg; in series [3], 38 µL/min/mg; in series [4], 15 µL/min/mg. This compound showed an IC50 on Histone deacetylase 1 of 51 nM.
In the case of `CCC(=O)CCCCC[C@H](NC(=O)C1CN(C)C1)c1ncc(-c2cc3ccccc3nc2F)[nH]1`, the CC50 in the series with HeLa amounted to 190 nM. Besides, the microsomal CLint at 1 µM in [2] was found to be 28 µL/min/mg; in series [3], 34 µL/min/mg; in series [4] it was 18 µL/min/mg. At Histone deacetylase 1, the midpoint of inhibition, the IC50, lay at 8 nM.
Consider `CC(=O)CCCCC[C@H](NC(=O)C1CCN(C)CC1)c1ncc(-c2ccc3ccccc3c2)[nH]1`, for which, in the series on HeLa, the 50% cytotoxic concentration (CC50) was 300 nM. Further, the CL in [2] (microsomes, 1.5 h, 1 µM) is 194 µL/min/mg; in the series on Liver microsomes, 194 µL/min/mg.
As to `CCC(=O)CCCCC[C@H](NC(=O)C1CCN(C)CC1)c1ncc(-c2cnc3ccccc3c2)[nH]1`, in the series with HeLa, half-maximal cytotoxicity (CC50) was put at 250 nM. In addition, the microsomal CLint at 1 µM was 24 µL/min/mg in [2], 510 µL/min/mg in [3] and 49 µL/min/mg in series [4]. At Histone deacetylase 1, this compound gave an IC50 of 4 nM.
Taken in the same sequence, the figures for `CCC(=O)CCCCC[C@H](NC(=O)C1CN(C)C1)c1ncc(-c2ccc3nccnc3c2)[nH]1` were 1200 nM, 3 µL/min/mg, 13 µL/min/mg, less than 1 µL/min/mg and 39 nM.
`CCC(=O)CCCCC[C@H](NC(=O)C1CCN(C)CC1)c1ncc(-c2ccc3ccccc3c2)[nH]1`: in the series on HeLa, the CC50 was 210 nM. Moreover, the microsomal CLint at 1 µM was 194 µL/min/mg in series [2], more than 200 µL/min/mg in series [3] and 194 µL/min/mg in [4].
Regarding `CCC(=O)CCCCC[C@H](NC(=O)C1CN(C)C1)c1ncc(-c2cnc3ccccc3n2)[nH]1`, in the series on HeLa, the CC50 came out at 430 nM. Further, the microsomal CLint at 1 µM in series [2] was determined as 20 µL/min/mg; in [3] it was 27 µL/min/mg; in series [4], 19 µL/min/mg. The same compound came in with an IC50 against Histone deacetylase 1 of 8 nM.
For `CCC(=O)CCCCC[C@H](NC(=O)C1CCN(C)CC1)c1ncc(-c2ccc3ccccc3n2)[nH]1`, the clearance in series [1] came to 155 mL/min/kg. In the series with HeLa, this compound came in with a CC50 of 480 nM. The microsomal CLint at 1 µM in series [2] was 9 µL/min/mg; in [3], 110 µL/min/mg; in [4], 12 µL/min/mg. At Histone deacetylase 1, this compound returned an IC50 of 22 nM.
Take `CCC(=O)CCCCC[C@H](NC(=O)CCN1CCN(C)CC1)c1ncc(-c2cc(OC)c3ccccc3n2)[nH]1`: the cytotoxic concentration (CC50) in the series with HeLa came to 390 nM. Further, the figures for the microsomal CLint at 1 µM in [2], in series [3] and in series [4] were 170 µL/min/mg, 190 µL/min/mg and 140 µL/min/mg, respectively. Also, on Histone deacetylase 1, the IC50 turned out to be 17 nM.
As to `Nc1ccccc1NC(=O)c1ccc(CNC(=O)OCc2cccnc2)cc1` [ENTINOSTAT], the CC50 in the series with HeLa is 1800 nM; in the series with HCT-116 (Homo sapiens, HCT-116, 72 h) it was 700 nM; in the series on A2780, 3000 nM; with G-401 (Homo sapiens, G-401, 72 h) it was 1300 nM; with A549, 1200 nM.
Turning to `CCC(=O)CCCCC[C@H](NC(=O)C1CN(C)C1)c1ncc(-c2cc(OC)c3ccccc3n2)[nH]1`, in series [1], the clearance is 20 mL/min/kg. The compound also displayed a CC50 in the series with HeLa of 970 nM. The intrinsic metabolic clearance (microsomal CLint) at 1 µM in series [2] was 9 µL/min/mg; in series [3], 15 µL/min/mg; in series [4], 16 µL/min/mg. Moreover, the IC50 against Histone deacetylase 1 worked out at 162 nM.
In the case of `CCC(=O)CCCCC[C@H](NC(=O)C1CCN(C)CC1)c1ncc(-c2cc(OC)c3ccccc3n2)[nH]1`, in series [1], the clearance turned out to be 36 mL/min/kg. This compound yielded a CC50 in the series with HeLa of 770 nM. In addition, the microsomal CLint at 1 µM in [2] is 5 µL/min/mg; in [3], 36 µL/min/mg; in series [4], 10 µL/min/mg. On Histone deacetylase 1, this compound had an IC50 of 30 nM.
As to `O=C(CCCCCCC(=O)Nc1ccccc1)NO` [VORINOSTAT], the CC50 with MCF7 amounted to 3000 nM; in the series on HCT-116, 1000 nM; in the series on G-401, 1000 nM.
`CCC(=O)CCCCC[C@H](NC(=O)C1CCN(C)CC1)c1ncc(-c2ccc3ncccc3c2)[nH]1` had a 50% cytotoxic concentration (CC50) in the series with HeLa of 200 nM. The microsomal CLint at 1 µM was determined as 23 µL/min/mg in series [2], 98 µL/min/mg in [3] and 12 µL/min/mg in series [4]. This compound displayed an IC50 against Histone deacetylase 1 of 2 nM.
Taken in the same sequence, the figures for `CCC(=O)CCCCC[C@H](NC(=O)C1CCN(C)CC1)c1ncc(-c2cc3ccccc3cn2)[nH]1` were 22 nM, 18 µL/min/mg, 210 µL/min/mg, 29 µL/min/mg and 8 nM.
